Test results published in paper PMC2685281 (Journal of organometallic chemistry, 2009).
Like-named read-outs stand apart in the source and are kept apart here.

How the values were obtained:
[1] = target: T1, lipoic acid groups of the α-ketoglutarate dehydrogenase complex (Sus scrofa, UniProt Q9N0F1); assay type: binding, porcine
T1 sequence (Q9N0F1 69-455): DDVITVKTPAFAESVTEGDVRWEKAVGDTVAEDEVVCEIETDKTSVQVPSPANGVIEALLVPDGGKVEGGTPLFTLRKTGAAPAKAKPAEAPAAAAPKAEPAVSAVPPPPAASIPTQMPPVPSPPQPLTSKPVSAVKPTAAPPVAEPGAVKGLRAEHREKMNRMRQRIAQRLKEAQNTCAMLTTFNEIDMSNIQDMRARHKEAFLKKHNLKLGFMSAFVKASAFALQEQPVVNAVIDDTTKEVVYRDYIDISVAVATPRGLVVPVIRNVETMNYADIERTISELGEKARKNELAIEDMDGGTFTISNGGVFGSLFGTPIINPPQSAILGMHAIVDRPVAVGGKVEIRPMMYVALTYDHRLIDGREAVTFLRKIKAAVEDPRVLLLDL

[2] = target: T2, lipoic acid groups of the pyruvate dehydrogenase complex (Sus scrofa, UniProt A0A4X1TBD2); assay type: binding, porcine
T2 sequence (A0A4X1TBD2 1-647): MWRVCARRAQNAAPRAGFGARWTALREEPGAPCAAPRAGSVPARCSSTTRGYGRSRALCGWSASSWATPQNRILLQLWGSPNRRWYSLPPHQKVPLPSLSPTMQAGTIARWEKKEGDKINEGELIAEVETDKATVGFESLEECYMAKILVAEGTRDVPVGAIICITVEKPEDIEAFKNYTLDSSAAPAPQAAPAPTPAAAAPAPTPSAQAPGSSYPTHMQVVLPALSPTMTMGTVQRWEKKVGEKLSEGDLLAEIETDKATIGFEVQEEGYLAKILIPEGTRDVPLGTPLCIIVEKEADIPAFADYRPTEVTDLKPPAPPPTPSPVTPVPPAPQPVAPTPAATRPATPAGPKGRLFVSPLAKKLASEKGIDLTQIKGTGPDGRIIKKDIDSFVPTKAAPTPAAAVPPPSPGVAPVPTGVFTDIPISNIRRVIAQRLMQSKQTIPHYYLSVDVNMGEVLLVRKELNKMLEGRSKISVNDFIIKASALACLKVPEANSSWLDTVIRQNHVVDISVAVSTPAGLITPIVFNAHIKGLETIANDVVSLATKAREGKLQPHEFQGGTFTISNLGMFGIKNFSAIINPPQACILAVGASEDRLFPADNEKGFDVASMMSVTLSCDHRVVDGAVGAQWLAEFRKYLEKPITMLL

PDH complex = details: read-out: IC50, PDH inhibition; cited from earlier work
[3] = target: α-ketoglutarate dehydrogenase (KGDH) complex (Sus scrofa, UniProt Q9N0F1); assay type: biochemical, porcine
reduced thiol groups = details: read-out: dissociation constants (Kd) for reduced thiol groups; cited from earlier work
[4] = target: pyruvate dehydrogenase (PDH) complex; assay type: biochemical, porcine

## Dimethylarsonous iodide [DMA ^3+]
[1]
  Loss of recognition of lipoic acid groups by anti-lipoic acid antibody, KGDH: strong interference
[2]
  Loss of recognition of lipoic acid groups by anti-lipoic acid antibody, PDH: strong interference

## Sodium arsenite [As ^3+]
PDH complex
  IC50: 116 µM
[3]
  50% enzyme inhibition (IC50), KGDH, half hour incubation: 733 ppb
  50% enzyme inhibition (IC50), KGDH, one hour incubation: 488 ppb
[3]; read-out: 50% enzyme inhibition (IC50), KGDH, half hour incubation
  IC50: 9.78 µM
[3]; read-out: 50% enzyme inhibition (IC50), KGDH, one hour incubation
  IC50: 6.51 µM
Reduced thiol groups
  Kd: 5 to 124 µM
[4]
  50% enzyme inhibition (IC50), PDH, half hour incubation: 704 ppb
  50% enzyme inhibition (IC50), PDH, one hour incubation: 267 ppb
[4]; read-out: 50% enzyme inhibition (IC50), PDH, half hour incubation
  IC50: 9.39 µM
[4]; read-out: 50% enzyme inhibition (IC50), PDH, one hour incubation
  IC50: 3.56 µM
